The assay can be described thus: Binding to HIV1 Vpr by isothermal titration calorimetry. The arrangement: species or system Human immunodeficiency virus.

Molecules are shown by their SMILES.

This is an account of results in ChEMBL document CHEMBL1268972, “Solid-phase synthesis and screening of N-acylated polyamine (NAPA) combinatorial libraries for protein binding” (Bioorg Med Chem Lett, 2010).

What is called Kd is the free concentration of one partner at which half of the binding sites on the other are occupied at equilibrium, for simple one-to-one binding. Low readings indicate tighter binding, high ones weaker binding.

The compound `C[C@H](CC(N)=O)N(C[C@@H](CCCCN)N(C[C@@H](CCCCN)N(C[C@@H](Cc1ccc(O)cc1)NC(=O)Cc1ccc([N+](=O)[O-])cc1)C(=O)CCc1ccccc1)C(=O)CCc1ccccc1)C(=O)CCc1ccccc1` showed a Kd of 25 µM. That is a double-digit micromolar value.
